pIC50: −log10 of the molar value.
Biological target: T1, Axl (Homo sapiens, UniProt P30530)
T1 sequence (P30530 26-894): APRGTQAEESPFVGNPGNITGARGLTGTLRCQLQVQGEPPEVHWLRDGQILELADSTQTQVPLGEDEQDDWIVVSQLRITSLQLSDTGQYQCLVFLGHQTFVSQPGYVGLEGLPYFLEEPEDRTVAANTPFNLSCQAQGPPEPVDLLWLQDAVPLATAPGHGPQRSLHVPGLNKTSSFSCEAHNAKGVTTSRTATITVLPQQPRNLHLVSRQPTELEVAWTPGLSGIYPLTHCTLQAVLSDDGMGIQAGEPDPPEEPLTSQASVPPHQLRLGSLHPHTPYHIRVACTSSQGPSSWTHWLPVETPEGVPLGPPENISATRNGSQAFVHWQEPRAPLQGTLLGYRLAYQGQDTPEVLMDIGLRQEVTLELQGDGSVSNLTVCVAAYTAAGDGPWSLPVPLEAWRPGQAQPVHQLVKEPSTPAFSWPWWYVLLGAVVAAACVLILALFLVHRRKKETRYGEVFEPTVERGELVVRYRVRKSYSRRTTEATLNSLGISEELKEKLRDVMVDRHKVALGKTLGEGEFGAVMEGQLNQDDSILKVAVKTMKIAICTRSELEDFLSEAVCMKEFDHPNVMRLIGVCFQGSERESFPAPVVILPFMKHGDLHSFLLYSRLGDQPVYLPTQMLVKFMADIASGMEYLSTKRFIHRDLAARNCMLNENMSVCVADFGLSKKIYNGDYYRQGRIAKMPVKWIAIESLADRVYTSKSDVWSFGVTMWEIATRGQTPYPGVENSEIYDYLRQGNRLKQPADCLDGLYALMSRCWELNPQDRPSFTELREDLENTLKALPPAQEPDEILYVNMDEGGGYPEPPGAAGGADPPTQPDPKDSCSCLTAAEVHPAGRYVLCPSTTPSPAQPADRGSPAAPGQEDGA
Assay: Cellular Axl inhibition ELISA (p-Axl, Gas6-induced) using H1299 cells
Format: cell-based
Set-up: especially H1299 cell endogenously expresses Axl; endogenous in cells; host or cells: H1299
Settings: read-out: Cellular Axl activity by H1299 Elisa (IC50)
Method in brief: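 H1299 cells, seeded overnight, exposed 24 h at 37 °C to 10-point 3-fold compound dilutions, then stimulated with 200 ng/ml human Gas6 (final) for 1 h. Lysates assayed for p-Axl by sandwich ELISA with HRP/TMB, absorbance 450 nm; IC50 by sigmoidal dose-response fit.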

Structure (SMILES) | pIC50
COc1cc2nccc(Oc3ccc(NC(=O)c4nn(CC5CCNC5)cc4OCC(F)(F)F)nc3)c2cc1OC (stereo not shown) [Compound 72] | ≤ 6.00
COc1cc2nccc(Oc3ccc(NC(=O)c4nn(CC5CNC5)cc4OCC(F)(F)F)nc3)c2cc1OC [Compound 73] | ≤ 6.00
COc1cc2nccc(Oc3ccc(NC(=O)c4nn(C5CCNC5)cc4OCC(F)(F)F)c(F)c3)c2cc1OC (stereo not shown) [Compound 74] | > 6.30
COc1cc2nccc(Oc3ccc(NC(=O)c4nn(CCN)cc4OCC(F)(F)F)c(F)c3)c2cc1OC [Compound 75] | > 6.30
COc1cc2nccc(Oc3ccc(NC(=O)c4nn(CC(C)O)cc4OCC(F)(F)F)c(F)c3)c2cc1OC (stereo not shown) [Compound 76] | > 6.30
COc1cc2nccc(Oc3ccc(NC(=O)c4nn(CCC(F)(F)F)cc4OCC4CCC4)nc3)c2cc1OC [Compound 166] | > 6.30
CCCn1cc(OCC2CCC2)c(C(=O)Nc2ccc(Oc3ccnc4cc(OC)c(OC(F)(F)F)cc34)cn2)n1 [Compound 167] | > 6.30
COc1cc2nccc(Oc3ccc(NC(=O)c4nn(CCNC5CC5)cc4OCC(F)(F)F)nc3)c2cc1OC [Compound 168] | > 6.30
COc1cc2nccc(Oc3ccc(NC(=O)c4nn(CC5CCN(C)C5)cc4OCC(F)(F)F)nc3)c2cc1OC (stereo not shown) [Compound 169] | ≤ 6.00

Second part, the compound after the results:

pIC50 | Structure (SMILES)
> 6.30 | COc1cc2nccc(Oc3ccc(NC(=O)c4nn(C5CC5)cc4OCCC(F)(F)F)nc3)c2cc1OC [Compound 170]
> 6.30 | COCCOc1cn(C2CC2)nc1C(=O)Nc1ccc(Oc2ccnc3cc(OC)c(OC)cc23)nn1 [Compound 171]
≤ 6.00 | COc1cc2nccc(Oc3ccc(NC(=O)c4nn(C5CC5)cc4OCC4CNC4)nn3)c2cc1OC [Compound 172]
> 6.30 | COc1cc2nccc(Oc3ccc(NC(=O)c4nn(C5CC5)cc4OCCC(F)(F)F)nn3)c2cc1OC [Compound 173]
≤ 6.00 | COc1cc2nccc(Oc3ccc(NC(=O)c4nn(CC(C)O)cc4OCC4CN(C)C4)nc3)c2cc1OC (stereo not shown) [Compound 174]
> 6.30 | COc1cc2nccc(Oc3ccc(NC(=O)c4nn(CC(C)O)cc4OCC(F)F)nc3)c2cc1OC (stereo not shown) [Compound 175]
> 6.30 | COc1cc2nccc(Oc3ccc(NC(=O)c4nc(CCC(F)(F)F)oc4CCC4CCC4)nc3)c2cc1OC [Compound 176]
> 6.30 | CCCn1cc(OCCN(C)C)c(C(=O)Nc2ccc(Oc3ccnc4cc(OC)c(OC)cc34)cn2)n1 [Compound 177]
> 6.30 | COc1cc2nccc(Oc3ccc(NC(=O)c4cc(C5CC5)cnc4OCC(F)(F)F)nc3)c2cc1OC [Compound 178]
> 6.30 | COc1cc2nccc(Oc3ccc(NC(=O)c4sc(C5CC5)cc4OCC(F)(F)F)nc3)c2cc1OC [Compound 179]
